Key:
[1] = tested on: guinea pig cough model (citric acid and histamine); test: Guinea pig cough response model (dose response); assay type: in vivo; details: for reduction in cough vs. control: 2 hours prior to citric acid and histamine, coughs counted 15 minutes, statistically significant; for reduction in cough frequency as compared to the control (dose dependence): 0.3, 3 and 30 mg/kg oral
Text: The anti-tussive effect of Compound 1 was compared to that of AF-219 in a guinea pig cough model. Guinea pigs are the most commonly used animal in cough studies for both the investigation of the cough reflex at a fundamental level and for use as an antitussive screen (Mackensie et al., Drug Discovery Today, 2004, 1, 297-302). In the guinea pig, it was shown that exposure to ATP and histamine aerosols increases cough responses to tussive stimuli via P2X3 receptor-mediated mechanisms (Kamei et al., Eur J Pharmacol (2005) 528: 158-161; Kamei et al., Eur J Pharmacol (2006) 547: 160-164).
(§1) Treatments (control, Compound 1 (0.3, 3 and 30 mg/kg) or AF-219 (0.3, 3 or 30 mg/kg)) were administered orally in seven groups of 6 animals 2 hours prior to tussive agent exposure (citric acid and histamine) and the number of coughs were counted for a period of 15 minutes.

[2] = tested on: guinea pig cough model (citric acid and histamine); test: Time course study in guinea pig cough response model; assay type: in vivo; details: single oral 30 mg/kg; for anti-tussive effect (significance): 8 hours post-dose
Procedure: as §1
Using the same guinea pig cough model as described in Example 2, a time course study was conducted to assess the duration of the anti-tussive effect of Compound 1 and AF-219 following the administration of a single oral 30 mg/kg dose. In this study, animals in groups of 6 were exposed to tussive agents (citric acid and histamine) at various times after the administration of the study drugs (2, 4, 6, 8 and 12 hours post-dose for Compound 1; and 2 and 8 hours post-dose for AF-219) and the number of coughs were measured for 15 minutes.

taste function = test: Two bottle taste study (water vs quinine); assay type: in vivo, rat; details: 10 or 20 mg/kg intraperitoneally; for effect on taste function: rat; for quinine drunk relative to control: rats water-fasted overnight, volume measured for 15 minutes at Cmax
Procedure: A rat taste model was used to compare the effect of Compound 1 on taste function with that of AF-219. Animals were water-fasted overnight and presented with one bottle of water and one bottle of (bitter-tasting) quinine at the time corresponding to the maximum plasma concentration of study drugs; and the volume of liquid consumed from each bottle was measured for 15 minutes. Treatments (control, Compound 1 (10 or 20 mg/kg) or AF-219 (10 or 20 mg/kg)) were administered intraperitoneally in two groups of 10 rats.

[3] = tested on: P2X3 and P2X2/P2X3 channel; test: Fluo-8 calcium assay, antagonism of P2X3 versus P2X2/P2X3 channels in HEK293 cells; assay type: cell-based; details: human P2X3 and P2X2/P2X3 in HEK293 cells, meATP stimulation; IC50s only in FIG. 3
Procedure: The ability of the compounds described herein and Gefapixant (also known as AF-219) to act as an antagonist of the P2X3 and P2X2/P2X3 channel (encoded by the human P2RX2 and P2RX3 genes, stably expressed in HEK293 cells) was evaluated with a Fluo-8 calcium kit. Compounds 1, 2, 9, 11, 15, and AF-219 were evaluated at twelve concentrations.
For the antagonist effect assessment, the cells were pre-incubated with Compounds 1, 2, 9, 11, 15, and AF-219 for 20 minutes, then stimulated with the P2X3 and P2X2/P2X3 agonist α,β-methyleneATP (meATP) at final concentrations of 3 μM and 30 μM. Four minutes fifty seconds after addition of meATP, ionomycin was added at a final concentration of 5 μM in order to obtain the maximum calcium influx and fluorescence signal possible from the cells. Fluorescence was recorded continuously for 10 minutes, starting 10 seconds prior to the addition of meATP.

effect on taste function (taste function) | Compound | reduction in cough vs. control ([1]; 30 mg/kg oral) [%] | reduction in cough frequency as compared to the control (dose dependence) [1] | duration of anti-tussive effect [2] | reduction in cough frequency compared to control (significance) ([2]; 2 hours post-dose) | anti-tussive effect (significance) [2] | quinine drunk relative to control (taste function) | selectivity as P2X3 antagonist (P2X3 versus P2X2/3) [3] | also measured
altered taste function | COc1cc(C(C)C)c(Oc2cnc(N)nc2N)cc1S(N)(=O)=O [AF-219, Gefapixant, reference compound] | 45 | comparable dose-dependent reduction in cough frequency | comparable duration of effect | statistically significant | no longer significant | approximately 5 times |  | 
did not | CNC(=O)c1cc(F)c(-c2nc3cc(C)ccn3c2C[C@H]2CN(C(=O)OC)CCO2)c(F)c1 [Compound 1] | 52 | comparable dose-dependent reduction in cough frequency | comparable duration of effect | statistically significant | no longer significant | did not drink more quinine than the control animals | selective P2X3 antagonists | reduction in cough vs. control ([1]; 3 mg/kg oral): 39%; reduction in cough frequency compared to control (significance) ([2]; 4 hours post-dose): statistically significant; reduction in cough frequency compared to control (significance) ([2]; 6 hours post-dose): statistically significant
 | CCC(=O)N1CCO[C@@H](Cc2c(-c3c(F)cc(C(=O)NC)cc3F)nc3cc(C)ccn23)C1 [Compound 2] |  |  |  |  |  |  | selective P2X3 antagonists | 
 | CNC(=O)c1cc(F)c(-c2nc3cc(C)ccn3c2C[C@H]2CN(C(C)=O)CCO2)cc1F [Compound 9] |  |  |  |  |  |  | selective P2X3 antagonists | 
 | CNC(=O)c1ccc(-c2nc3cc(Cl)ccn3c2C[C@H]2CN(C(C)=O)CCO2)c(C)c1 [Compound 11] |  |  |  |  |  |  | selective P2X3 antagonists | 
 | CNC(=O)c1cc(F)c(-c2nc3cc(Cl)ccn3c2C[C@H]2CN(C(C)=O)CCO2)c(F)c1 [Compound 15] |  |  |  |  |  |  | selective P2X3 antagonists | 

Reference: patent US10111883B1, “Selective P2X3 modulators” (BELLUS Health inc., priority 2017, dated 2018)
